Measurements: patent US9840512B2, “Antidiabetic bicyclic compounds” (Merck Sharp & Dohme Corp., priority 2013, dated 2017)

Each molecule was assayed against human GPR40 (Homo sapiens, UniProt O14842) (assay: Inositol Phosphate Turnover (IP1) Assay 2). Details: HEK cells stably expressing human GPR40, Table 2, read-out: Human IP1.
Chain of human GPR40 (O14842 whole entry): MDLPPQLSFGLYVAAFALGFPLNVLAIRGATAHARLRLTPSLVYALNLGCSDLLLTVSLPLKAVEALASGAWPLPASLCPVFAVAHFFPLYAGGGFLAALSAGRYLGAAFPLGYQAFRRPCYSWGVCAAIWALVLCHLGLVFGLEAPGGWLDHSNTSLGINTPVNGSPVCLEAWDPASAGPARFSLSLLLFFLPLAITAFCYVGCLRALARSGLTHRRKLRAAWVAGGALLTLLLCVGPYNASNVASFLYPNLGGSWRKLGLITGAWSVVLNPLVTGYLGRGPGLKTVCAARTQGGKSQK
Assay type: cell-based
Design: expressed in transfected cells
Method: Human and mouse GPR40 stable cell-lines were generated in CHO cells stably expressing NFAT BLA (Beta-lactamase). A human GPR40 stable cell-line was generated in HEK cells stably expressing the aequorin expressing reporter. The expression plasmids were transfected using lipofectamine (Life Technologies) following manufacturer's instructions. Stable cell-lines were generated following drug selection.
The assay is performed in 384-well format. HEK cells stably expressing human GPR40 are plated at 15,000 cells per well in growth medium (DMEM/10% fetal calf serum). Cell plates are then incubated 16 hours at 37 degrees in a 5% CO2 incubator.
Measurement of Inositol Phosphate Turnover (IP1) is performed using the CisBio IP-One kit (Part number 62IPAPEB). After the 16 hour incubation, the cells are washed with HEPES buffer and 10 ul of stimulation buffer (prepared as described in the kit) is added to each well. In a separate plate, compounds are diluted in DMSO (400-fold over the final concentration in the assay well) and 25 nl is acoustically transferred to the appropriate well in the assay cell plate. The plates are then incubated for 60 minutes at 37 degrees. 10 ul of detection buffer (also prepared as described in the IP-One kit) is added to each well and the plates are incubated for 60 minutes in the dark. The plates are then read in a Perkin Elmer EnVision or equivalent reader able to measure FRET.
Molecule O=C(O)C[C@H](c1ccc2c(c1)OC(c1ccc(-c3ccccc3)cc1)CC2)C1CC1 (mixture of isomers) [Example 80] has an EC50 of 130 nM. Work on COc1cncc(-c2ccc(C3CCc4ccc([C@@H](CC(=O)O)C5CC5)cc4O3)c(F)c2)c1 (mixture of isomers) [Example 86] yielded an EC50 of 363 nM. With CN1CCOc2cc(-c3ccc(C4CCc5ccc([C@@H](CC(=O)O)C6CC6)cc5O4)c(F)c3)ccc21 (mixture of isomers) [Example 87] the EC50 was 1390 nM. In the case of COc1ccc(F)c(-c2ccc(C3CCc4ccc([C@@H](CC(=O)O)C5CC5)cc4O3)c(F)c2)c1 (mixture of isomers) [Example 88], the EC50 is reported as 6.5 nM. For COc1cccc(-c2ccc(C3CCc4ccc([C@@H](CC(=O)O)C5CC5)cc4O3)c(F)c2)c1 (mixture of isomers) [Example 90], the EC50 was 10.6 nM. COc1cc(-c2ccc(C3CCc4ccc([C@@H](CC(=O)O)C5CC5)cc4O3)c(F)c2)c(F)cn1 (mixture of isomers) [Example 91] was tested, and the EC50 was 3.6 nM. In the case of COc1ccc(Cl)c(-c2ccc(C3CCc4ccc([C@@H](CC(=O)O)C5CC5)cc4O3)c(F)c2)c1 (mixture of isomers) [Example 92], the EC50 is reported as 19 nM. Work on COc1cncc(-c2ccc(C3CCc4ccc([C@@H](CC(=O)O)C5CC5)cc4O3)c(F)c2)n1 (mixture of isomers) [Example 93] yielded an EC50 of 488 nM. With COc1cc(-c2ccc(C3CCc4ccc([C@@H](CC(=O)O)C5CC5)cc4O3)c(F)c2)c(F)cc1F (mixture of isomers) [Example 95] the EC50 was 218 nM. COc1cc(-c2ccc(C3CCc4ccc([C@@H](CC(=O)O)C5CC5)cc4O3)c(F)c2)ccn1 (mixture of isomers) [Example 96] gave an EC50 of 14 nM. COc1ccc(F)c(-c2ccc(C3CCc4ccc([C@@H](CC(=O)O)C5CC5)cc4O3)cc2OC(F)(F)F)c1 (mixture of isomers) [Example 99] showed an EC50 of 29 nM. COc1ccc(F)c(-c2ccc(C3CCc4ccc([C@H](C5CC5)[C@H](C)C(=O)O)cc4O3)cc2OC(F)(F)F)c1 (mixture of isomers) [Example 100] was tested, and the EC50 was 32 nM. Molecule COc1ccc(F)c(-c2ccc(C3CCc4ccc([C@@H](CC(=O)O)C5CC5)cc4O3)cc2[C@H]2CCCC2(C)C)c1 (mixture of isomers) [Example 102] has an EC50 of 66 nM. COc1ccc(F)c(-c2ccc(C3CCc4ccc([C@@H](CC(=O)O)C5CC5)cc4O3)cc2[C@@H]2CCCC2(C)C)c1 (mixture of isomers) [Example 103] was tested, and the EC50 was 6.2 nM. With COc1ccc(F)c(-c2ccc(C3CCc4ccc([C@@H](CC(=O)O)C5CC5)cc4O3)nc2)c1 (mixture of isomers) [Example 104] the EC50 was 16 nM. C[C@H](C(=O)O)[C@H](c1ccc2c(c1)OC(c1ccc(-c3cc(O)ccc3F)cn1)CC2)C1CC1 (mixture of isomers) [Example 107] showed an EC50 of 132 nM. In the case of COc1ccc(F)c(-c2ccc(C3CCc4ccc([C@H](C5CC5)[C@H](C)C(=O)O)cc4O3)nc2C2=CCCC2(C)C)c1 (mixture of isomers) [Example 114], the EC50 is reported as 8.8 nM. COc1ccc(F)c(-c2ccc(C3CCc4ccc([C@H](C5CC5)[C@H](C)C(=O)O)cc4O3)c(C(F)(F)F)n2)c1 (mixture of isomers) [Example 116] was tested, and the EC50 was 17 nM. COc1cc(-c2cnc(C3CCc4ccc([C@H](C5CC5)[C@H](C)C(=O)O)cc4O3)c(F)c2)ccn1 (mixture of isomers) [Example 121] showed an EC50 of 11 nM. For COc1ccc(F)c(-c2ccc(C3CCc4ccc([C@@H](CC(=O)O)C5CC5)cc4O3)cc2C(OC)C2CC2)c1 (mixture of isomers) [Example 126], the EC50 was 14.1 nM. With COc1ccc(F)c(-c2ccc(C3CCc4ccc([C@@H](CC(=O)O)C5CC5)cc4O3)cc2C(OC)C(F)(F)F)c1 (mixture of isomers) [Example 127] the EC50 was 41.5 nM. COc1ccc(F)c(-c2ccc(C3CCc4ccc([C@H](C5CC5)[C@H](C)C(=O)O)cc4O3)cc2C(OC)C(C)(C)C)c1 (mixture of isomers) [Example 128] was tested, and the EC50 was 3.2 nM. Work on COc1cc(-c2ccc(C3CCc4ccc([C@H](C5CC5)[C@H](C)C(=O)O)cc4O3)cc2C(OC)C(C)(C)C)ccn1 (mixture of isomers) [Example 129] yielded an EC50 of 0.5 nM. Molecule COc1cc(-c2ccc(C3CCc4ccc([C@H](C5CC5)[C@H](C)C(=O)O)cc4O3)cc2C(OC)C2CC2)c(F)cn1 (mixture of isomers) [Example 130] has an EC50 of 0.9 nM. In the case of COc1ccc(F)c(-c2cnc(C3CCc4ccc([C@H](C5CC5)[C@H](C)C(=O)O)cc4O3)cn2)c1 (mixture of isomers) [Example 131], the EC50 is reported as 1.7 nM. In the case of COc1ccc(F)c(-c2ccc(C3CCc4ccc([C@H](C5CC5)[C@H](C)C(=O)O)cc4O3)nc2N2CCC2)c1 (mixture of isomers) [Example 132], the EC50 is reported as 18 nM. Molecule COc1cc(-c2ccc(C3CCc4ccc([C@H](C5CC5)[C@H](C)C(=O)O)cc4O3)c(F)c2)ccn1 (mixture of isomers) [Example 133, (2S,3R)-3-cyclopropyl-3-(2-(2-fluoro-4-(2-methoxypyridin-4-yl)phenyl)-chroman-7-yl)-2-methylpropanoic acid] has an EC50 of 1.2 nM. Molecule COc1ccc(F)c(-c2ccc(C3CCc4ccc([C@H](C5CC5)[C@H](C)C(=O)O)nc4O3)cc2)c1 (mixture of isomers) [Example 137] has an EC50 of 454 nM. In the case of COc1ccc(F)c(-c2ccc(C3CCc4ccc([C@@H](CC(=O)O)C5CC5)cc4O3)cc2)c1 (single isomer, unassigned) [Example 61], the EC50 is reported as 36 nM. In the case of COc1ccc(F)c(-c2ccc(C3CCc4ccc([C@@H](CC(=O)O)C5CC5)cc4O3)cc2)c1 (single isomer, unassigned) [Example 62], the EC50 is reported as 18 nM. COc1ccc(F)c(-c2ccc([C@@H]3CCc4ccc([C@H](C5CC5)[C@H](C)C(=O)O)cc4O3)cc2)c1 (single isomer, unassigned) [Example 63] gave an EC50 of 3.3 nM. In the case of COc1ccc(F)c(-c2ccc([C@H]3CCc4ccc([C@H](C5CC5)[C@H](C)C(=O)O)cc4O3)cc2)c1 (single isomer, unassigned) [Example 64], the EC50 is reported as 1.1 nM. For COc1ccc(F)c(-c2ccc(C3CCc4ccc([C@H](C5CC5)[C@@H](C)C(=O)O)cc4O3)cc2)c1 (single isomer, unassigned) [Example 65], the EC50 was 51 nM. Work on COc1ccc(F)c(-c2ccc(C3CCc4ccc([C@H](C5CC5)[C@@H](C)C(=O)O)cc4O3)cc2)c1 (single isomer, unassigned) [Example 66] yielded an EC50 of 53 nM. C[C@H](C(=O)O)[C@H](c1ccc2c(c1)OC(c1ccc(-c3cc(O)ccc3F)cc1)CC2)C1CC1 (single isomer, unassigned) [Example 67] showed an EC50 of 21 nM. C[C@H](C(=O)O)[C@H](c1ccc2c(c1)OC(c1ccc(-c3cc(O)ccc3F)cc1)CC2)C1CC1 (single isomer, unassigned) [Example 68] showed an EC50 of 1.9 nM. COc1ccc(F)c(-c2ccc(C3CCc4ccc([C@H](C5CC5)[C@H](C)C(=O)O)cc4O3)nc2)c1 (single isomer, unassigned) [Example 97a] was tested, and the EC50 was 0.9 nM. COc1ccc(F)c(-c2ccc(C3CCc4ccc([C@H](C5CC5)[C@@H](C)C(=O)O)cc4O3)nc2)c1 (single isomer, unassigned) [Example 97b] was tested, and the EC50 was 30 nM. COc1ccc(F)c(-c2ccc(C3CCc4ccc([C@H](C5CC5)[C@H](C)C(=O)O)cc4O3)nc2)c1 (single isomer, unassigned) [Example 97c] showed an EC50 of 2.9 nM. For COc1ccc(F)c(-c2ccc(C3CCc4ccc([C@H](C5CC5)[C@@H](C)C(=O)O)cc4O3)nc2)c1 (single isomer, unassigned) [Example 97d], the EC50 was 43 nM. With COc1ccc(F)c(-c2ccc(C3CCc4ccc(C(CC(=O)O)C5CC5)cc4O3)cc2C2=CCCC2(C)C)c1 (single isomer, unassigned) [Example 101a] the EC50 was 662 nM. For COc1ccc(F)c(-c2ccc(C3CCc4ccc(C(CC(=O)O)C5CC5)cc4O3)cc2C2=CCCC2(C)C)c1 (single isomer, unassigned) [Example 101b], the EC50 was 704 nM. Molecule COc1ccc(F)c(-c2ccc(C3CCc4ccc(C(CC(=O)O)C5CC5)cc4O3)cc2C2=CCCC2(C)C)c1 (single isomer, unassigned) [Example 101c] has an EC50 of 58 nM. COc1ccc(F)c(-c2ccc(C3CCc4ccc(C(CC(=O)O)C5CC5)cc4O3)cc2C2=CCCC2(C)C)c1 (single isomer, unassigned) [Example 101d] showed an EC50 of 90 nM. With COc1ccc(F)c(-c2cnc(C3CCc4ccc([C@H](C5CC5)[C@H](C)C(=O)O)cc4O3)c(F)c2)c1 (single isomer, unassigned) [Example 105a] the EC50 was 0.82 nM. COc1ccc(F)c(-c2cnc(C3CCc4ccc([C@H](C5CC5)[C@H](C)C(=O)O)cc4O3)c(F)c2)c1 (single isomer, unassigned) [Example 105b] showed an EC50 of 0.79 nM.

Same assay, conditions: HEK cells stably expressing human GPR40, Table 3, read-out: Human IP1 activity
COc1ccc(F)c(-c2ccc(C3COc4ccc([C@H](C5CC5)[C@H](C)C(=O)O)c(F)c4O3)nc2)c1 (mixture of isomers) [Example 165] was tested, and the EC50 was 2.6 nM. COc1ccc(F)c(-c2ccc(C3COc4ccc([C@@H](CC(=O)O)C5CC5)cc4O3)cc2)c1 (mixture of isomers) [Example 166] showed an EC50 of 18.8 nM. Molecule COc1ccc(F)c(-c2ccc(C3COc4ccc([C@H](C5CC5)[C@H](C)C(=O)O)cc4O3)cc2OC(F)(F)F)c1 (mixture of isomers) [Example 169] has an EC50 of 9.5 nM.
